The results in this text go back to PMC7930720, “Functional Expression of the Human Glucose Transporters GLUT2 and GLUT3 in Yeast Offers Novel Screening Systems for GLUT-Targeting Drugs” (Frontiers in Molecular Biosciences, 2021).

Holding throughout (assay type): cell-based
Assay [1] concerns the target T1, GLUT2 (Homo sapiens, UniProt P11168, A89S/DEL55-88/Q455R).
T1 construct: gene SLC2A2
T1 sequence (P11168 with tags, fused parts or gaps DEL55-88/A89S/Q455R): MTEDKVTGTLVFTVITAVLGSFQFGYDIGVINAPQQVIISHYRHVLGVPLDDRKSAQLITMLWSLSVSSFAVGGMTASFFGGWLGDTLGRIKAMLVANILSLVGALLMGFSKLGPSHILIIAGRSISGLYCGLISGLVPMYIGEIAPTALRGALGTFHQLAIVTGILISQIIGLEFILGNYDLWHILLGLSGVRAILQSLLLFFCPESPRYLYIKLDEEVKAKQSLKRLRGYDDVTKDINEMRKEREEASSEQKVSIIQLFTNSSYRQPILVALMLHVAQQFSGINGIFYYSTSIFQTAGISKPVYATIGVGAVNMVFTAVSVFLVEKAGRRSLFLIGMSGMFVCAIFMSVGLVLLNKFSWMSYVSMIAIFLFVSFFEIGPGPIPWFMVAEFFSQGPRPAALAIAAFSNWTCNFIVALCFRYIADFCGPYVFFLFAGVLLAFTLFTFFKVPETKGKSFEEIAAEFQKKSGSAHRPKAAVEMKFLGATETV
The assay can be described thus: inhibition of […]-glucose ([…]) uptake in hxt0 EBY.S7 yeast expressing the transporter; growth assay.

Assay [2] deals with T2, GLUT3 (Homo sapiens, UniProt P11169, S66Y).
T2 construct: gene SLC2A3; GLUT3S66Y
T2 sequence (P11169 1-496 S66Y): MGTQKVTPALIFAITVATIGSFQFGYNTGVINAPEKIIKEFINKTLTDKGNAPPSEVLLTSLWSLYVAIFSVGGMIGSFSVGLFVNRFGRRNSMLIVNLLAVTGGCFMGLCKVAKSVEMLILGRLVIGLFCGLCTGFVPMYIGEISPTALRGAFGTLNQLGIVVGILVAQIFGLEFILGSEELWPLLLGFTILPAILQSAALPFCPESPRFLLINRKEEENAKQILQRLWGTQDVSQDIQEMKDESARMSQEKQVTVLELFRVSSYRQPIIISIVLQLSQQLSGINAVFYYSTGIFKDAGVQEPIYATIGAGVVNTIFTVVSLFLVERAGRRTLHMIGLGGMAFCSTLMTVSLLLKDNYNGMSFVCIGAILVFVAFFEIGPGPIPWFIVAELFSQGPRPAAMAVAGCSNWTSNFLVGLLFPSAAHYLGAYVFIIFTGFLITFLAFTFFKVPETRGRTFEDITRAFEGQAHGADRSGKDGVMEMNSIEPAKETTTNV
The assay is described as above.

The target of assay [3] is T2, GLUT3. The assay can be described thus: inhibition of […]-glucose ([…]) uptake in hxt0 EBY.S7 yeast expressing the transporter.
Assay [4] addresses T1, GLUT2. The assay is described as above.

`O=C(CCc1ccc(O)cc1)c1c(O)cc(O)cc1O` [phloretin]: the IC50 was found to be 1.07 ± 0.11 µM in assay [1] and 22.4 ± 1.8 µM in assay [2].
Consider `O=c1c(O)c(-c2ccc(O)c(O)c2)oc2cc(O)cc(O)c12` [quercetin], for which the IC50 in assay [3] came out at 11.6 ± 0.6 µM; in assay [4], 3.22 ± 0.45 µM.

The term IC50 denotes the point on the concentration scale where inhibition reaches its midpoint.
